pEC50: −log10 of the molar value. Where two headings read alike, the source gives them in different places.
Key:
HIV-1 (IIIB isolate) = assay: HIV-1 inhibition (p24 antigen ELISA) in infected H9 lymphocytes; type: cell-based; conditions: Human immunodeficiency virus 1, IIIB, Lymphocyte, 96 h; H9 lymphocytes; p24 ELISA Day 4; average of at least two experiments; read-out: Anti-HIV Activity EC50
Experimental: (§1) Aliquot of this cell line were only used in experiments when in log-phase growth. Test samples were first dissolved in dimethyl sulfoxide. The following final drug concentrations were routinely used for screening: 100, 20, 4 and 0.8 μg/ml. For active agents, additional dilutions were prepared for subsequent testing so that an accurate EC50 value (defined below) could be achieved. […] The appropriate amount of virus for a multiplicity of infection (moi) between 0.1 and 0.01 Infectious Units/cell was added to the first aliquot of H9 cells. The other aliquot only received culture medium, and these mock-infected cells were used for toxicity determinations (IC50, defined below). After a 4 h incubation at 37° C. and 5% CO2, both cell populations were washed three times with fresh medium and then added to the appropriate wells of a 24 well-plate containing the various concentrations of the test drug or culture medium (positive infected control/negative drug control). In addition, AZT was also assayed during each experiment as a positive drug control. The plates were incubated at 37° C. and 5% CO2 for 4 days. Cell-free supernatants were collected on Day 4 for use in a p24 antigen ELISA assay. P24 antigen is a core protein of HIV and therefore is an indirect measure of virus present in the supernatants. Toxicity was determined by performing cell counts by a Coulter Counter on the mock-infected H9 cells which had either received culture medium (no toxicity), test sample, or AZT.
Compounds of the present invention were assayed for anti-HIV activity according to the following assay procedures. […] The cell lines were used in experiments only when in the logarithmic phase of growth, whereas uninfected peripheral blood mononuclear cells (PBMCs) were first stimulated with PHA (1 μg/mL) for three days. […] The cell lines and PBMCs were washed thoroughly to remove unadsorbed virions and resuspended at 4×10^5 cells/ml in complete medium or complete medium with 10% v/v interleukin 2 (IL-2) , respectively. One ml. aliquots were placed into wells of 24-well culture plates containing an equal volume of test compounds (diluted in the appropriate culture medium). The toxicity of each compound was assessed by determining the number of compound-exposed uninfected cells that remained after four days at 37° C. and 5% CO2. A p24 antigen ELISA assay was used to determine the level of virus released in the medium of the HIV-infected cultures. The p24 antigen assay used a HIV-1 anti-p24 specific monoclonal antibody as the capture antibody coated onto 96-well plates. […] P24 in the culture medium was quantitated against a standard curve containing known amounts of p24. The effective (EC50) and inhibitory (IC50) concentrations for anti-HIV activity and cytotoxicity, respectively, were determined.

[1] = Cytotoxicity: cell counts of mock-infected H9 cells; type: cell-based; conditions: human; toxic to 50% of mock-infected H9 cells; 4 days; average of at least two experiments; read-out: Cytotoxicity IC50
Experimental: as §1, with “The biological evaluation of HIV-1 inhibition was carried out according to established protocols, (Kashiwada, Y., et al., J Med Chem. 39:1016-1017 (1996); Hashimoto, F., et al., Bioorg. & Med Chem. 5:2133-2143 (1997)). The T cell line, H9, was maintained in continuous culture with complete medium (RPMI 1640 with 10% fetal calf serum supplemented with L-glutamine at 5% CO2 and 37° C.). Aliquot” for “Aliquot”, “achieved. As the test samples were being prepared, an aliquot of the H9 cell line was infected with HIV-1 (IIIB isolate) while another aliquot was mock-infected with complete medium.” for “achieved.”
Compounds of the present invention were assayed for anti-HIV activity according to the following assay procedures. The T cell line, H9, and the promonocytic cell line, U937, were maintained separately in continuous culture with complete medium (RPMI 1640 with 10% fetal calf serum) at 5% CO2 and 37° C. The cell lines were used in experiments only when in the logarithmic phase of growth, whereas uninfected peripheral blood mononuclear cells (PBMCs) were first stimulated with PHA (1 μg/mL) for three days. All cell targets were incubated with HIV-1 (IIIB isolate, TCID50 10^4 IU/ml, at a multiplicity of infection of […] IU/cell) for one hour at 37° C. and 5% CO2. The cell lines and PBMCs were washed thoroughly to remove unadsorbed virions and resuspended at 4×10^5 cells/ml in complete medium or complete medium with 10% v/v interleukin 2 (IL-2) , respectively. One ml. aliquots were placed into wells of 24-well culture plates containing an equal volume of test compounds (diluted in the appropriate culture medium). The toxicity of each compound was assessed by determining the number of compound-exposed uninfected cells that remained after four days at 37° C. and 5% CO2. A p24 antigen ELISA assay was used to determine the level of virus released in the medium of the HIV-infected cultures. The p24 antigen assay used a HIV-1 anti-p24 specific monoclonal antibody as the capture antibody coated onto 96-well plates. Following a sample incubation period, rabbit serum containing antibodies for HIV-1 p24 was used to tag any p24 captured onto the microtiterwell surface. Peroxidase conjugated goat anti-rabbit serum was then used to tag HIV-1 p24 specific rabbit antibodies that had complexed with captured p24. […] The cutoff for the p24 ELISA assay was 12.5 pg/ml. P24 in the culture medium was quantitated against a standard curve containing known amounts of p24. […]

HIV-1 = conditions: H9 lymphocyte cells, Fujioka et al. 1994, cited from earlier work
[2] = read-out: EC50, inhibitory activity against HIV-1 replication

C=C(C)[C@@H]1CC[C@]2(C(=O)O)CC[C@]3(C)[C@H](CC[C@@H]4[C@@]5(C)CC[C@H](O)C(C)(C)[C@@H]5CC[C@]43C)[C@@H]12 [Compound 1, betulinic acid, reference compound]
pEC50 (HIV-1 (IIIB isolate)): 5.85
CC50 at 96 h [1]: 13000 nM
pEC50 (HIV-1; [2]): 5.85

CC(C)[C@@H]1CC[C@]2(C(=O)O)CC[C@]3(C)[C@H](CC[C@@H]4[C@@]5(C)CC[C@H](O)C(C)(C)[C@@H]5CC[C@]43C)[C@@H]12 [dihydrobetulinic acid]
T.I. (HIV-1): 14
pEC50 (HIV-1; read-out: EC50, anti-HIV activity (unit inferred)): 6.05

CC(=O)[C@@H]1CC[C@]2(C(=O)O)CC[C@]3(C)[C@H](CC[C@@H]4[C@@]5(C)CC[C@H](O)C(C)(C)[C@@H]5CC[C@]43C)[C@@H]12 [platanic acid]
T.I. (HIV-1): 14
pEC50 (HIV-1; [2]): 5.19
